Reference: patent publication US20240228542A1, “LYTIC DOMAIN FUSION CONSTRUCTS, CHECKPOINT INHIBITORS, AND METHODS OF MAKING AND USING SAME” (A28 Therapeutics Inc., priority 2020, published 2024)

Legend:
[1] = tested on: MDA-MB-435S.luc xenograft; test: MDA-MB-435S.luc xenograft, βCG fusion constructs; assay type: in vivo, Nu/Nu mice; conditions: vs baseline and saline controls
Method: Female Nu/Nu mice were injected subcutaneously with a MDA-MB-435S.luc/Matrigel HC suspension (1×10^6 cells). In brief, treatment started on day 13 after tumor cell injection and continued on day 19 and 25. […] The doses for weekly injections were 5, 1 and 0.01 mg/kg body weight, given as a bolus single injection.
The effect of cytolytic peptide injections on the primary tumors is illustrated in FIG. 8. In brief, the FIGS. 8A-8C show tumor volume during the course of the study for each individual peptide. FIGS. 8D-8G show tumor characteristics at necropsy; tumor volume (D), tumor weight (E), live tumor cells (F), tumor conditions (G).
Treatment efficacy was calculated as difference between measurements at the beginning of treatment compared to the measurement at the end of study (FIG. 8H-8I). […] Viability of cells in the tumors was determined at the end of the study when tumors were measured for luciferase activity.

MDA-MB-435 cells = test: Fluorescence microscopy of MDA-MB-435 cells; assay type: cell-based, human; conditions: 10 μM, 5 minutes exposure
Method: In brief, human melanoma cells (MDA-MB-435, passage #252) were seeded onto culture dishes. The following markers were introduced prior to adding EP-100; DRAQ5™(Alexis Corporation)—blue—was used for staining of the nucleus and Mito Tracker® Red CMXRos (M7512) (Molecular Probes, Inc. OR) were applied for visualizing intact mitochondria. Cell membranes were stained with wheat germ alexa fluor green conjugates (Molecular Probes, Inc. OR).
Cells were loaded first with Mitotracker dye, according to the manufacturer's recommendation. Phor 18-LHRH (338613) reconstituted in saline was added at a final concentration of 10 μM and incubated for 5-10 minutes. Culture dishes with saline only served as controls. The supernatant was removed, and the remaining cells prepared for fluorescence microscopy imaging.

[2] = tested on: murine ovarian cancer cells; test: EP-100 cytotoxicity and LHRH-R specificity in murine ovarian cancer cells; assay type: cell-based; conditions: ID8 cells, EP-100, 24 hr
From the text: To identify the direct effects of EP-100 on cancer cells, murine ovarian cancer cell lines were used for in vitro experiments. […] The level of expression of LHRH-R in murine ovarian cancer cells using RT-PCR and Western blot analysis. […] Indeed, LHRH-R was expressed mainly on the membrane of cancer cells (FIGS. 14D and 14E). Human SKOV3ipl ovarian cancer cells and immortalized murine 3T3 fibroblasts were used as negative controls.
To determine whether the antitumor EP-100 efficacy was specific to LHRH-R expression, we silenced LHRH-R using siRNA (FIG. 15A). […].

MCF-7 xenograft = test: MCF-7 breast cancer xenograft; assay type: in vivo, nude mice; conditions: MCF-7, 2 × 3 wk, 19 d
Method: In vivo efficacy studies were conducted as monotherapy, or a combination therapy with standard of care treatments in nude mice bearing human melanoma xenografts; MDA-MB-435S.luc (s.c.), human breast cancer xenografts MCF-7 (estrogen receptor alpha positive), human ovarian cancer xenografts; OVCAR-3, (s.c.), human prostate cancer xenografts; PC-3 (androgen receptor negative).
Mice were sacrificed one week after the last injection and blood collected for chemistry panel, tumor weights and body weights were recorded. Part of the tumors were fixed in PBS buffered 10% formalin for histological evaluation.

242 = test: Cytotoxicity in cell line 242 (Table 7); assay type: cell-based, murine; conditions: 242, 24 h; read-out: In vitro activity (IC50)
IF5 = test: Cytotoxicity in IF5 murine ovarian cancer cells (24 h); assay type: cell-based; conditions: IF5, 24 h; read-out: In vitro activity (IC50)
Method: Murine ovarian cancer cell lines (ID8, IG10, IF5, and 2Cl2) were grown in RPMI 1640 media with 10% Fetal Bovine Serum. Cells were typically seeded (3000 cells per well) into 96 well plates and media was replaced after 48 hours of incubation. […] Phor18-LHRH was provided in lyophilized form was dissolved in saline and added to cells. The duration of incubation was 24 h at 37° C. Cell viability was assessed after 24 hours using a luminometric assays (Promega, CellTiter-0Glo 2.0, G9243). Controls contained saline or 0.1% triton as reference for 0 and 100% cell death, respectively.
Data were processed and analyzed using GraphPad Prism version 7.00 for Windows (GraphPad Software, San Diego California). Statistical analysis for significance was determined by a two-tailed Student's T-test. Each study was conducted to achieve an […] of at least 6.
In vitro activities were expressed as IC50 values for each cell line, time point and compound tested that were calculated using the Hill equation (Graph Pad Prizm software).

CD8+ T cells = test: T cell activation by condition media from EP-100-treated ID8 cells; assay type: cell-based, mouse; conditions: cells treated with condition media (CM) from EP-100-treated cells; controls 12.3±1.1, p=0.04
[3] = tested on: IG10 murine ovarian carcinoma; test: Orthotopic IG10 murine ovarian carcinoma syngeneic model; assay type: in vivo, C57BL/6 mice
Method: C57BL/6 female mice were injected orthotopically with luciferase labeled IG10 murine ovarian cancer cell line (1x10^6 cells). Mice were monitored for tumor take using a luminescent imaging system. […] Each treatment and control group consisted of 10 mice. At necropsy on day 28, ascites fluids were removed and measured, and tumors were removed and weighed.
Significance between treatment groups was assessed using Wilcoxon signed Rank test analysis and ANOVA.

MDA-MB-435S xenograft = test: MDA-MB-435S xenograft, kinetics after a single injection; assay type: in vivo, Nu/Nu mice; conditions: 0.2 and 2 mg/kg
Method: In brief, Nu/Nu female mice, outbred strain, age 5 weeks (Charles River), were injected (s.c.) into the interscapular region with a MDA-MB-435S (passage #249)/Matrigel suspension (2.4×10^6 cells/mouse) as described in Example 10. Phor 18-LHRH (338613) (ID: 338613 lot #P080401) (0.2, and 2 mg/kg) were reconstituted in USP saline prior to dosing. The doses were given as a single bolus intravenous injection via lateral tail vein.
Mice were sacrificed 1, 2 and 16 hours after treatment with Phor 18-LHRH (338613) or saline. At study endpoint body weight, tumor weights were determined, and tumors were fixed in phosphate buffered 10% formalin.

Sequence	tumor volume [1]	plasma membrane, fluorescence microscopy (MDA-MB-435 cells)	viability of cells in which LHRH-R was silenced (siRNA) [2]	Median Tumor Weight vs Saline P < 0.05 (dose, growth delay) (MCF-7 xenograft) [mg/kg]	IC50 242 [nM]	IC50 (IF5) [nM]	proportion of CD8+ T cells (CD8+ T cells)	relative reduction of ascites volumes [3] [%]	tumor weights at necropsy ([3]; Mean±SEM, N=10, controls 1.04±0.09 g) [g]	ascites volumes ([3]; Mean±SEM, N=10, vehicle 9.06±1.3 ml) [mL]	time to destruction of tumors after injection (MDA-MB-435S xenograft) [h]
KFAKFAKKFAKFAKKFAK [Phor18, reference compound]	ineffective in reducing the xenograft volume	–	–	–	–	–	–	–	–	–	–
KFAKFAKKFAKFAKKFAKQHWSYGLRPG [Phor18-LHRH]	–	disintegration of the plasma membrane	remained viable	0.02	1380	1010	17.3±1.1	60.2	0.45 ± 0.08	3.6 ± 0.7	1
